Data: US20240101599A1, “PEPTIDE, CELL GROWTH PROMOTER, PROTEIN PRODUCTION PROMOTER, CULTURE MEDIUM, CELL GROWTH METHOD USING PEPTIDE, AND PROTEIN PRODUCTION METHOD USING PEPTIDE” (Maruhachi Muramatsu, Inc., priority 2020, published 2024)
Peptide text beside a SMILES is read from it.

System: CHO-K1
Assay: Cell growth test of each peptide on coating agent for 5 days
Format: cell-based
Parameters: Viability, 1 / Viability, 2 / Viability, 3 / Viability, Mean: unit not given here
Conditions: 2.0 mM Ala-Gly-Lys, 2.1 mM Gly-Glu-Lys, 2.5 mM Gly-Gly-Gly, poly-L-lysine coating; for Cells cell count, Mean / Viability, Mean: mean n=3, 2.2 mM Asp-Gly-Pro; for Cells cell count, 1 / Viability, 1: replicate 1, 2.2 mM Asp-Gly-Pro; for Cells cell count, 2 / Viability, 2: replicate 2, 2.2 mM Asp-Gly-Pro; for Cells cell count, 3 / Viability, 3: replicate 3, 2.2 mM Asp-Gly-Pro
Description: Peptides having the sequences of Asp-Gly-Pro (DGP), Ala-Gly-Lys (AGK), Gly-Glu-Lys (GEK), and Gly-Gly-Gly (GGG) were synthesized to prepare each peptide solution such that the concentration was a concentration at which the cell number increased the most within a range of 0 mM to 5 mM. In other words, Asp-Gly-Pro (DGP) was adjusted to 22 mM, Ala-Gly-Lys (AGK) was adjusted to 20 mM, Gly-Glu-Lys (GEK) was adjusted to 21 mM, and Gly-Gly-Gly (GGG) was adjusted to 25 mM, and an amount of 1/10 of the total culture medium volume was added to each well immediately before the cell culture test such that final concentrations were 2.2 mM, 2.0 mM, 2.1 mM, and 2.5 mM, respectively. Poly-L-lysine (Peptide Institute, Inc., Poly-L-Lysine Hydrochloride, code: 3075) was prepared to 0.1 mg/mL, and 200 μL was dispensed into each well of a 24-well plate, which was left to stand in an incubator at 37° C. for 2 hours. After removing the residual liquid with an aspirator, rinsing was performed with distilled water, irradiation was performed with a UV lamp in a clean bench without a lid, and drying was performed overnight to sterilize. A cell suspension prepared such that CHO-K1 (RIKEN BioResource Research Center, cell number: RCB2330) was at 4×10^4 cells/mL was seeded in each well of a 24-well plate at 500 μL/well and cultured in an incubator at 37° C. and 5% CO2 for 24 hours. As a culture medium, an MEMα culture medium (Gibco) containing 10% FBS was used.
After removing the culture medium from each well and washing with the MEMα culture medium (500 μL), 450 μL of a new MEMα culture medium was dispensed into each well, and each peptide solution (50 μL) was added (total 500 μL/well) to perform culture for 5 days. The cells were recovered to count the cell number. A similar culture test was performed using a system containing neither peptide nor FBS as a comparative sample.
The culture medium in each well was recovered in a 1.5 mL tube to be rinsed with 200 μL of MEMα, and the rinsed liquid was also recovered in the same 1.5 mL tube. Thereafter, 100 μL of trypsin was added and incubated for 3 minutes. After rinsing with 300 μL of MEMα containing 10% FBS, the rinsed liquid was also recovered in the same 1.5 mL tube. After rinsing again with 200 μL of MEMα containing 10% FBS, the rinsed liquid was also recovered in the same 1.5 mL tube.
A centrifugation operation was performed on the cells recovered in the 1.5 mL tube. The centrifugation conditions were 1,000 rpm, 10 minutes, and 4° C.
The supernatant was removed, and 300 μL of Cold PBS (phosphate buffered saline) was added to perform a centrifugation operation under the same conditions. The present operation was repeated twice.
Suspension was carried out with 100 μL of Binding Buffer, and 2 μL of propidium iodide (PI) was added and stirred in the tube to cause a reaction for 15 minutes at room temperature and with light shielding. Thereafter, the viable cell count and the cell viability were measured with a flow cytometer.
The above preparation, culture, and measurement were performed with n=3. Table 15 and FIG. 15 show the viable cell count in each peptide solution, and Table 16 and FIG. 16 show the cell viability in each peptide solution.

Compound | Cells cell count, Mean | Viability, Mean | Cells cell count, 1 | Viability, 1 | Cells cell count, 2 | Viability, 2 | Cells cell count, 3 | Viability, 3
NCCCC[C@H](NC(=O)[C@H](CCC(=O)O)NC(=O)CN)C(=O)O [GEK, Gly-Glu-Lys] (H-Gly-Glu-Lys-OH; N-terminus and C-terminus assumed) | 16.5830 ×10^4 | 90.3 | 15.7190 ×10^4 | 90.2 | 16.9875 ×10^4 | 90.3 | 17.0425 ×10^4 | 90.5
C[C@H](N)C(=O)NCC(=O)N[C@@H](CCCCN)C(=O)O [AGK, Ala-Gly-Lys] (H-Ala-Gly-Lys-OH; N-terminus and C-terminus assumed) | 2.6217 ×10^4 | 25.0 | 2.6860 ×10^4 | 26.4 | 3.0605 ×10^4 | 26.4 | 2.1185 ×10^4 | 22.1
Asp-Gly-Pro [DGP] | 14.9353 ×10^4 | 89.6 | 15.8220 ×10^4 | 91.5 | 14.8590 ×10^4 | 91.2 | 14.1250 ×10^4 | 86.0
